# Data reported in patent US20040006070A1, “Intraspinal continuous infusion of midazolam hydrochloride for the treatment of pain” (priority 2002, published 2004).
# “And” between values parts separate entries of the source, which are not always exact repeats. Equal values may be shown once. Where a name gives a salt, the structure may show the parent alone.
# Tests used:
# [1] = Physiological data: indirect blood pressure, pulse, rectal temperature, weight; assay type: in vivo, sheep
# From the text: Daily rectal temperatures were taken and any behavioral/motor changes were noted. Gait monitoring will be conducted as described below based on a four-grade scale for the evaluation of behavioral and motor changes. Grade 0: animal standing, sheep is able to rise and ambulate without any difficulty. Grade 1: Shuffling of either rear leg or slight limp; slight distortion of normal spinal axis. Grade 2: Loss of righting reflex in one of the rear legs, sheep able to stand without assistance, but with some difficulty. Grade 3: Inability to maintain standing posture; attempts to help animal stand are unsuccessful.
# Indirect blood pressure, pulse recording, pain testing (mechanical stimulus device, cold and warm water baths see description in procedure) and weight were taken on days 1, 3, 7, 15, 22, 29, 36, and 43. Venous blood samples (15 ml drawn from the jugular vein with Vacutainer brand blood collection tubes) for complete blood count, electrolytes, and extended blood chemistry were drawn on days 1, 15, and 43 (mild procedure only light hand restraint necessary).
# [2] = Toxicity of continuous intrathecal infusion in acute pain sheep: clinical symptoms, necropsy, histology; assay type: in vivo
# Protocol: The inventors have completed a toxicity and efficacy study of intrathecal midazolam hydrochloride in 15 sheep instrumented with Medtronic SynchroMed® infusion systems. The surgical procedure and the hardware used in these animals was analogous to that utilized in humans. The first sheep was tested for toxicity only (3 mg/day), and all subsequent animals tested for both toxicity and analgesic activity.
# Open-label (known dose) trial: A trial with known midazolam doses was performed in the first 7 sheep. Animals were administered 3 mg/day (N=1), 5 mg/day (N=1), 10 mg/day (N=1), and 15 mg/day (N=4) for 43 days. These doses were chosen based upon previous intrathecal bolus dose studies in rats and humans, with conversion of from species to species based on cerebral spinal fluid (CSF) production rate and total CSF volume. Analgesic activity was assessed using a mechanical stimulus device which produces a stimulus of acute pain by application of force via a blunt needle applied to the shaved front foreleg of the animal. Force is applied with increasing pressure until the animal lifts its leg in response to the painful stimulus. To evaluate the analgesic effect of midazolam, response latencies were expressed as a percentage of the maximum possible effect, % MPE. The response latency is defined as follows: [formula]
# On day 43 after venous blood samples were taken, animals were euthanized (Beuthanasia 1 ml/4.5 kg IV bolus injection). CSF samples were obtained for analysis (1-2 ml drawn from L-7/S-1 after a laminectomy was performed to expose the dura) of glucose, total protein, and cell differential.
# [3] = double blinded sheep Chicken Hawk #87, 5 mg/day intrathecal infusion, day (1-43), hydrochloride
# [4] = double blinded sheep Elmer Fudd #437, 5 mg/day intrathecal infusion, day (1-43), hydrochloride
# [5] = double blinded sheep Leghorn II #815, 15 mg/day intrathecal infusion, day (1-43), hydrochloride
# [6] = double blinded sheep Petunia #439, 15 mg/day intrathecal infusion, day (1-43), hydrochloride
# [7] = double blinded sheep Porky #402, 5 mg/day intrathecal infusion, day (1-43), hydrochloride
# [8] = double blinded sheep Roadrunner #84, 15 mg/day intrathecal infusion, day (1-43), hydrochloride
# [9] = open label sheep #457 Tazz, 15 mg/day intrathecal infusion, day (1-43), hydrochloride
# [10] = open label sheep #498 Toad, 10 mg/day intrathecal infusion, day (1-43), hydrochloride
# [11] = open label sheep #518 Sandy, 5 mg/day intrathecal infusion, day (1-43), hydrochloride
# [12] = open label sheep Dot #85, 15 mg/day intrathecal infusion, day (1-43), hydrochloride
# [13] = open label sheep Wacko #83, 15 mg/day intrathecal infusion, day (1-43), hydrochloride
# [14] = open label sheep Yacko #91, 15 mg/day intrathecal infusion, day (1-43), hydrochloride
# [15] = double blinded sheep Chicken Hawk #87, 5 mg/day, 43 days
# [16] = double blinded sheep Elmer Fudd #437, 5 mg/day, 43 days
# [17] = double blinded sheep Leghorn II #815, 15 mg/day, 43 days
# [18] = double blinded sheep Petunia #439, 15 mg/day, 43 days
# [19] = double blinded sheep Porky #402, 5 mg/day, 43 days
# [20] = double blinded sheep Roadrunner #84, 15 mg/day, 43 days
# [21] = open label sheep Dot #85, 15 mg/day, 43 days
# [22] = open label sheep Wacko #83, 15 mg/day, 43 days
# [23] = open label sheep Yacko #91, 15 mg/day, 43 days
smiles,measurement,setting,value
"Cc1ncc2n1-c1ccc(Cl)cc1C(c1ccccc1F)=NC2 [Midazolam, midazolam hydrochloride]",Blood pressure Dia,[1]; [3],62 and 37 and 53 and 51 and 44 and 65 and 69 and 48
same,Blood pressure Sys,[1]; [3],112 and 127 and 122 and 132 and 130 and 126 and 151
same,Body Temp. Normal 101.3-104.0,[1]; [3],102.4 and 102.6 and 102.8 and 102.2 and 102.0
same,Pulse Rate Normal 55-115,[1]; [3],75 and 83 and 63 and 101 and 79 and 88 and 84 and 82
same,Blood pressure Sys,[1]; [4],122 and 138 and 119 and 131 and 150 and 136 and 139 and 120
same,Body Temp. Normal 101.3-104.0,[1]; [4],102.2 and 102.8 and 101.4 and 102.0 and 101.8
same,Pulse Rate Normal 55-115,[1]; [4],87 and 70 and 80 and 83 and 79 and 73 and 85
same,Blood pressure Sys,[1]; [5],130 and 152 and 143 and 160 and 138 and 145
same,Body Temp. Normal 101.3-104.0,[1]; [5],104.2 and 102.4 and 102.8 and 102.2 and 102.6
same,Pulse Rate Normal 55-115,[1]; [5],111 and 144 and 88 and 125 and 121 and 97 and 89 and 87
same,Blood pressure Dia,[1]; [6],34 and 49 and 44 and 32 and 26 and 45
same,Blood pressure Sys,[1]; [6],133 and 152 and 126 and 132 and 123 and 114 and 120 and 142
same,Body Temp. Normal 101.3-104.0,[1]; [6],102.0 and 102.8 and 103.0 and 101.0 and 102.4
same,Pulse Rate Normal 55-115,[1]; [6],89 and 72 and 74 and 69 and 66 and 63 and 71 and 90
same,Blood pressure Dia,[1]; [7],65 and 70 and 42 and 67 and 55 and 68 and 41 and 40
same,Blood pressure Sys,[1]; [7],148 and 107 and 140 and 133 and 113 and 135 and 134 and 147
same,Body Temp. Normal 101.3-104.0,[1]; [7],102.0 and 102.6 and 101.0 and 101.2 and 102.2
same,Pulse Rate Normal 55-115,[1]; [7],87 and 99 and 89 and 100 and 90 and 86 and 108
same,Blood pressure Dia,[1]; [8],75 and 77 and 49 and 42 and 50 and 51 and 40
same,Blood pressure Sys,[1]; [8],137 and 124 and 132 and 116 and 144
same,Body Temp. Normal 101.3-104.0,[1]; [8],101.8 and 101.6 and 102.2 and 104.0 and 102.4 and 102.0 and 102.6
same,Pulse Rate Normal 55-115,[1]; [8],90 and 97 and 104 and 78 and 94 and 130 and 124 and 77
same,Blood pressure Dia,[1]; [9],83 and 71 and 68 and 70 and 73 and 88
same,Blood pressure sys,[1]; [9],151 and 154 and 145 and 147 and 135
same,Body Temp. Normal 101.3-104.0,[1]; [9],100.8 and 102.2 and 103.0 and 102.0
same,Pulse Rate Normal 55-115,[1]; [9],138 and 77 and 74 and 76 and 79 and 82
same,Blood pressure Dia,[1]; [10],98 and 73 and 66 and 109 and 71 and 59 and 58
same,Blood pressure Sys,[1]; [10],177 and 143 and 136 and 156 and 153 and 118 and 149
same,Body Temp. Normal 101.3-104.0,[1]; [10],102.0 and 104.2 and 102.8 and 102.4 and 101.8 and 103.0 and 103.2
same,Pulse Rate Normal 55-115,[1]; [10],98 and 79 and 95 and 77 and 104 and 67 and 89 and 78
same,Blood pressure Sys,[1]; [11],180 and 150 and 141 and 152 and 147 and 169 and 164 and 185
same,Body Temp. Normal 101.3-104.0,[1]; [11],102.0 and 101.0 and 101.8 and 101.6 and 102.8
same,Blood pressure Dia,[1]; [12],68 and 49 and 67 and 59 and 53 and 77 and 57 and 69
same,Blood pressure Sys,[1]; [12],128 and 109 and 110 and 133 and 130 and 120 and 155
same,Pulse Rate Normal 55-115,[1]; [12],92 and 89 and 86 and 117 and 85 and 72 and 66 and 71
same,Blood pressure Dia,[1]; [13],60 and 45 and 47 and 42 and 51 and 66 and 73 and 70
same,Blood pressure Sys,[1]; [13],148 and 166 and 130 and 106 and 102 and 132 and 163 and 128
same,Body Temp. Normal 101.3-104.0,[1]; [13],102.0 and 102.4 and 102.6
same,Pulse Rate Normal 55-115,[1]; [13],104 and 98 and 91 and 92 and 99 and 84 and 75
same,Blood pressure Sys,[1]; [14],138 and 143 and 156 and 110 and 151 and 160 and 149
same,Pulse Rate Normal 55-115,[1]; [14],115 and 80 and 84 and 86 and 72 and 82 and 66 and 69
same,Blood pre-assure,"[1]; sheep Rowdy #819, 10 mg",136/75
same,Pulse,"[1]; sheep Rowdy #819, 10 mg",122
same,Blood pre-assure,"[1]; sheep Rowdy #819, 15 mg",143/77
same,Pulse,"[1]; sheep Rowdy #819, 15 mg",94
same,Respirations per minute,"[1]; sheep Rowdy #819, 15 mg",40 per minute
same,inflammatory lesions,[2]; any sheep receiving midazolam alone in the acute pain sheep study,no significant inflammatory lesions were observed
same,"behavioral, toxicological, or histopathologic changes related to the infusion","[2]; closed label sheep, continuous infusion 5 or 15 mg/day","did not produce any behavioral, toxicological, or histopathologic changes"
same,Histology,[2]; [15],mild catheter reaction
same,Necropsy,[2]; [15],no gross lesions noted
same,Histology,[2]; [16],mild catheter reaction
same,Necropsy,[2]; [16],no gross lesions noted
same,Histology,[2]; [17],mild catheter reaction
same,Necropsy,[2]; [17],No obvious lesions where detected
same,Histology,[2]; [18],mild catheter reaction
same,Necropsy,[2]; [18],no gross lesions noted
same,Histology,[2]; [19],mild catheter reaction
same,Necropsy,[2]; [19],no gross lesions noted
same,Histology,[2]; [20],mild catheter reaction
same,Necropsy,[2]; [20],no gross lesions noted
same,clinical symptoms,"[2]; open label sheep #457 Tazz, 15 mg/day, 43 days",No clinical symptoms
same,clinical symptoms,"[2]; open label sheep #498 Toad, 10 mg/day, 43 days",No clinical symptoms
same,clinical symptoms,"[2]; open label sheep #518 Sandy, 5 mg/day, 43 days",No clinical symptoms
same,Histology,[2]; [21],mild catheter reaction
same,Necropsy,[2]; [21],no gross lesions noted
same,Histology,[2]; [22],mild catheter reaction
same,Necropsy,[2]; [22],no gross lesions noted
same,Histology,[2]; [23],mild catheter reaction
same,Necropsy,[2]; [23],no gross lesions noted
same,"behavioral, toxicological, or histopathologic changes related to the infusion","[2]; open label sheep, continuous infusion 3-15 mg/day, 43 days","did not produce any behavioral, toxicological, or histopathologic changes"
